The text below walks through data of US20230340530A1, “Methods of Protecting RNA” (Pfizer Inc., priority 2020, published 2023).

Test [1] can be described thus: RNA FP protection counter screen assay. Particulars: counter screen for false positives, n=2. On the procedure:
(§1) In the FP assay, fluorophores were added to the 3′ and 5′ end of a short RNA construct and incubated with a boron compound under accelerated degradation conditions (e.g., base and temperature). For intact RNA, the 2 fluorophores come together to produce fluorescence. When the RNA is cleaved, there is no fluorescence. […] The counter screen assay run for each boron compound was used as control.
On the technique in general: The purpose of a counterscreen is to sort out artefacts and off-target activity.

Test [2] has as its system random 30nt RNA oligonucleotide with a 5′ Cy5 fluorophore and a 3′ Biotin (SEQ ID NO: 9). Kind of test: RNA Fluorescence Polarization (FP) protection assay. In kind it is biochemical. Particulars: 62.5 mM NaOH, 18 hours, dose response 600 µM top dose, n=2. On the procedure:
as §1
The RNA FP protection assay used a random 30nt RNA oligonucleotide (oligo) with a 5′ Cy5 fluorophore and a 3′ Biotin of the following sequence: 5′-Cy5-
In the presence of excess streptavidin, the RNA oligo will bind to the streptavidin and rotational spin will decrease causing an increase in the mP value in a fluorescence polarization (FP) measurement. When the RNA backbone is hydrolyzed under base mediated hydrolysis with increasing pH the Cy5 fluorophore will be free to spin faster lowering the mP value in an FP measurement. Compounds that inhibit base mediated hydrolysis will prevent release of Cy5 and reduction in mP value. […]
With regard to the plots provided in FIGS. 2-7, the detection for this assay used the fluorescent polarization of the fluorescent dye used in the assay. When a fluorescent dye has a high mass the spin rate is low and when the fluorescence is measured using two polarizing filters one parallel and one perpendicular the amount of spin can be measured. The unit Polarization was measured as mili-Polarization (mP). A dye with high mass will have a high mP reading and low mass will have a low mP reading. Streptavidin was added to bind to the biotin-RNA-Cy5 oligo to achieve high mass and the high mP reading. […] When a boron compound dose provides 100% activity, the RNA is intact/protected and the mP value measured is high. […]
To all wells in a compound spotted assay ready plate (Coming #3820) were added 2.5 µL of a 2x Biotin-RNA-Cy5 (Genescript custom #SC1518) and Streptavidin (ThermoFisher#21135) made in nuclease free water, incubated for 20 minutes, 2.5 µL of 50 mM Tris pH 7.2 was added to the positive control wells, and 2.5 µL 125 mM NaOH was added to all other wells. […]

Test [3] deals with RNA samples (Chi18 or HCV IRES). Kind of test: Droplet Digital Polymerase Chain Reaction (ddPCR) assay of RNA protection. It counts as biochemical. To be noted: 50 mM Tris buffer pH 11.4, 16 hrs at 30° C. for Chi18 or 42° C. for HCV; table does not say which RNA; 600 µM to 0.018 µM compound, 2% DMSO; read-out: EC50 Values Obtained from the ddPCR Assay. As for the experimental part: The ddPCR assays measured RNA integrity by converting intact RNA to cDNA by reverse transcription, then performing digital PCR in thousands of nanoliter-sized droplets for each sample. PCR was performed within each droplet, which allowed for more sensitive detection of subtle changes in RNA concentration compared to traditional PCR or qPCR. Additionally, primers/probes specific to the 5′ end of the RNA/cDNA transcript(s) were used to assess fragment integrity, i.e. degraded RNA had fewer 5′ positive droplets. The BioRad QX200 Droplet Digital PCR System was used for the ddPCR workflow.
RNA samples (Chi18 or HCV IRES) were diluted to 100 fg/µL in 50 mM Tris buffer pH 11.4. Boron compounds were tested in a dose-response format to determine EC50. A compound dilution plate that contained a 30 mM top concentration of compound in DMSO was serially (half-log) diluted 10 times. A quantity of 0.12 µL of this compound dilution plate was spotted into a 96-well PCR plate (Thermo). Sample RNAs were added (6 µL) and incubated with test compounds as described below. Final compound concentrations ranged from 600 µM to 0.018 µM in 2% DMSO.
For the degradation reaction, treated RNAs were incubated for 16 hrs at 30° C. for Chi18 samples or 42° C. for HCV samples. Upon completion of the degradation reaction, cDNA was made and ddPCR run for each sample (96 well plates). Positive 5′ droplet values were divided by the total accepted droplet values for each sample and a ratio value generated for each sample.
Data was imported into a database where percent (%) protection and compound EC50 were calculated and curated. […] EC50 was determined by using a four parameter logistic equation: Y=A+((B-A)/(1+(C/X)D)); where Y is percent protection, X is compound concentration, A and B are minimum and maximum asymptotes, respectively, C is EC50, and D is Hill slope.

Consider `CC1(C)OB(O)c2cc(C(=O)O)ccc21` [PF-06966741, 1-hydroxy-3,3-dimethyl-1,3-dihydrobenzo[c][1,2]oxabor ole-6-carboxylic acid], for which the “activity in the RNA FP protection counter screen” value in test [1] was “lack of activity”. Further, the “ability of the boron compound to protect RNA from being cleaved/degraded (percent activity, FP)” value in test [2] was “RNA protective effect”.

With `CC1(C)OB(C2(B3OC(C)(C)C(C)(C)O3)CCCCC2)OC1(C)C` [PF-07230998, 2,2′-(cyclohexane-1,1-diyl)bis(4,4,5,5-tetramethyl-1,3,2-dioxaborolane)], the “activity in the RNA FP protection counter screen” value in test [1] is recorded as “lack of activity”. Moreover, the “ability of the boron compound to protect RNA from being cleaved/degraded (percent activity, FP)” value in test [2] is on record as “RNA protective effect”. As to `NCc1cc(C(F)(F)F)ccc1Oc1ccc2c(c1)COB2O` [PF-06967658, 5-(2-(aminomethyl)-4-(trifluoromethyl)phenoxy)be nzo[c][1,2]oxaborol-1 (3H)-ol], the “activity in the RNA FP protection counter screen” value in test [1] is given as “lack of activity”. Moreover, the “ability of the boron compound to protect RNA from being cleaved/degraded (percent activity, FP)” value in test [2] was “RNA protective effect”. One may read the EC50 as the concentration at which the effect is half-maximal. Consider `CN1CCN(Cc2cccc(B(Oc3cccc4cccnc34)c3ccc(C#N)cc3)c2)CC1` [PF-06957315, quinolin-8-yl (4-cyanophenyl){3-[(4-methylpiperazin-1-yl)methyl]phenyl}borinate], for which, in test [3], the EC50 was determined as 253 µM.

With “bis(acetato-kappaO)[1-cyclopropyl-6,7-difluoro-8-methyl-4-(oxo-kappaO)-1,4-dihydroquinoline-3-carboxylato-kappaO]boron [PF-04743686]”, the half-maximal effective concentration (EC50) in test [3] came to 271 µM. `CN1CCN(Cc2cccc([B@@-]3(c4ccc(F)cc4)Oc4cccc5ccc[n+]3c45)c2)CC1` [PF-06956810, (4-fluorophenyl){3-[(4-methylpiperazin-1-yl)methyl]phenyl}(quinolin-8-olato-kappa-2-N,O)boron]: the EC50 in test [3] is 140 µM.

For the compound `O=C(OCc1cccc(B2OCc3cc(F)ccc32)c1)c1ccc2cccc(O)c2n1` [PF-06957137, [3-(5-fluoro-2,1-benzoxaborol-1 (3H)-yl)phenyl]methyl 8-hydroxyquinoline-2-carboxylate], the EC50 in test [3] turned out to be 429 µM. In the case of `Cc1cc(Oc2ccnc(NCCN)n2)cc2c1C(CC(=O)O)OB2O` (stereo not drawn) [PF-06959336, 2-(6-((2-((2-aminoethyl)amino)pyrimidin-4-yl)oxy)-1-hydroxy-4-methyl-1,3-dihydrobenzo[c][1,2]oxabor ol-3-yl)acetic acid], in test [3], the EC50 was found to be 114 µM. As to `C[C@H]1c2ccc(NCCC(=O)Nc3ccc4c(c3)OCCOB4O)c(O)c2C(=O)C2=C(O)[C@]3(O)C(=O)C(C(N)=O)=C(O)[C@@H](N(C)C)[C@@H]3[C@@H](O)[C@@H]21` [PF-06968559, (4S,4aR,5S,5aR,6R,12aS)-4-(dimethylamino)-3,5,10,12,12a-pentahydroxy-9-({3-[(1-hydroxy-3,4-dihydro-1H-2,5,1-benzodioxaborepin-7-yl)amino]-3-oxopropyl}amino)-8-methyl-1,11-dioxo-1,4,4a,5,5a,6,11,12a-oc tahydrotetracene-2-carboxamide], the EC50 in test [3] was found to be 99.1 µM.

For the compound `COC(=O)c1cc(B2OC(C)(C)C(C)(C)O2)cc(C(=O)OC)n1` [PHA-00804319, dimethyl 4-(4,4,5,5-tetramethyl-1,3,2-dioxaborolan-2-yl)pyridine-2,6-dicarboxylate], in test [3], the concentration for a half-maximal effect (EC50) amounted to 214 µM.

`C[C@H]1c2ccc(NCC(=O)Nc3ccc4c(c3)B(O)OC4)c(O)c2C(=O)C2=C(O)[C@]3(O)C(=O)C(C(N)=O)=C(O)[C@@H](N(C)C)[C@@H]3[C@@H](O)[C@@H]21` [PF-06968419, (4S,4aR,5S,5aR,6R,12aS)-4-(dimethylamino)-3,5,10,12,12a-pentahydroxy-9-({2-[(1-hydroxy-1,3-dihydro-2,1-benzoxaborol-6-yl)amino]-2-oxoethyl}amino)-6-methyl-1,11-dioxo-1,4,4a,5,5a,6,11,12a-octahydrotetr acene-2-carboxamide]: the EC50 in test [3] worked out at 75.1 µM. On the same count and under the same terms, under `C[C@H]1c2ccc(NCCC(=O)Nc3cc4c5c(c3)OCCOB5OC4)c(O)c2C(=O)C2=C(O)[C@]3(O)C(=O)C(C(N)=O)=C(O)[C@@H](N(C)C)[C@@H]3[C@@H](O)[C@@H]21` [PF-06968542, (4S,4aR,5S,5aR,6R,12aS)-9-({3-[(2,3-dihydro-7H-[1,2]oxaborolo[4,3,2-jk][2,5,1]benzodioxaborepin-9-yl)amino]-3-oxopropyl}amino)-4-(dimethylamino)-3,5,10,12,12a-pentahydroxy-6-methyl-1,11-dioxo-1,4,4a,5,5a,6,11,12a-octahydrotetracene-2-carboxamide] stands 126 µM.

`C[C@H]1c2c(NC(=O)c3ccc4c(c3)B(O)OC4(C)C)ccc(O)c2C(=O)C2=C(O)[C@]3(O)C(=O)C(C(N)=O)=C(O)[C@@H](N(C)C)[C@@H]3[C@@H](O)[C@@H]21` [PF-06968370, N-[(6aS,10S,10aR,11S,11aR, 12R)-8-carbamoyl-10-(dimethylamino)-4,6,6a,9,11-pentahydroxy-12-methyl-5,7-dioxo-5,6a,7,10,10a,11,11a,12-octahydrotetracen-1-yl]-1-hydroxy-3,3-dimethyl-1,3-dihydro-2,1-benzox aborole-6-carboxamide]: the EC50 in test [3] was found to be 258 µM.

Regarding `Cc1cc(C(=O)O)ccc1B1OC(C)(C)C(C)(C)O1` [PF-05417781, 3-methyl-4-(4,4,5,5-tetramethyl-1,3,2-dioxaborolan-2-yl)benzoic acid], the EC50 in test [3] is 463 µM. Same read-out and setting: the same measure for `C[C@H]1c2ccc(NC(=O)CNc3ccc4c(c3)B(O)OC4(C)C)c(O)c2C(=O)C2=C(O)[C@]3(O)C(=O)C(C(N)=O)=C(O)[C@@H](N(C)C)[C@@H]3[C@@H](O)[C@@H]21` [PF-06968306, (4S,4aR,5S,5aR,6R,12aS)-4-(dimethylamino)-3,5,10,12,12a-pentahydroxy-9-{[N-(1-hydroxy-3,3-dimethyl-1,3-dihydro-2,1-benzoxaborol-6-yl)glycyl]amino}-6-methyl-1,11-dioxo-1,4,4a,5,5a,6,11,12a-octahydrotet racene-2-carboxamide]: 234 µM.
